Reference: patent publication US10610586B2, “Compositions for antigen-specific induction of tolerance” (STALLERGENES, priority 2005, dated 2020)

Tests used:
[1] = tested on: human T cells; experiment: Gene expression by human T cells after coculture with adjuvant-treated DC (quantitative PCR); type: cell-based; settings: human DC treated with adjuvant 24 h, cultured with allogenic naive CD4+ T cells, mRNA 24 h to 5 days later; only above 2-fold increase considered significant
Method: Dendritic cells DC were treated with candidate adjuvants for 24 h, washed and cultured with purified allogenic naïve CD4+ T cells. mRNAs were extracted 24 h to 5 days later and gene expression was assessed by quantitative PCR with primers specific for the tested genes. Only data above 2-fold increase were considered as significant.
A human in vitro model, consisting of a coculture of human pretreated DC with allogenic T cells, has been used to select IL-10-inducing adjuvants. Briefly, human DC were treated with adjuvants. After 24 h, the DC were washed and cultured with allogenic naive CD4+ T cells. After 24 h to 5 days, gene expression in human T cells was assessed by quantitative PCR.

[2] = tested on: TGF-β; experiment: TGF-β production in supernatant of spleen cell cultures after sublingual tolerization; type: in vivo; settings: OVA-sensitized mice treated sublingually with OVA plus adjuvant; compared to PBS-treated mice or OVA alone
Method: For tolerance induction in a therapeutic model, sensitized mice were sublingually treated with OVA or OVA plus adjuvant every week, twice a week, during 2 months at a concentration of 500 μg (20 μl). Control mice were sensitized with OVA followed by sham tolerization with PBS. Dosage of TGF-β from supernatants of spleen cell cultures was performed with an ELISA kit (R&D systems). Mice were killed by cervical dislocation. Spleens cells were isolated and plated in triplicate in 96-well flat-bottomed ELISPOT plates (Millipore, Massachussets) at densities of 2×10^5 cells per well. Different conditions were used: medium alone, OVA (100μg/ml) and PMA (phorbol myristyl acetate) (50 ng/ml, Sigma)/ionomycin (500 ng/ml, Sigma) which was used as positive control. Spot forming cells (SFCs) were monitored for IFN-γ, IL-5 and IL10. Elispot kits were from R&D systems Europe.

[3] = tested on: BALB/c mice sensitized with OVA; experiment: Sublingual tolerization in a therapeutic model of type I allergy: airway responsiveness by whole body plethysmography; type: in vivo; settings: adjuvant given sublingually together with OVA 500 μg twice a week for 2 months to OVA-sensitized mice; methacholine 50 mg/ml; compared to PBS-treated mice or OVA alone
Method: Sensitization was performed by two intraperitoneal (i.p.) injections in 14 days interval with 10 μg OVA adsorbed to 2 mg Al(OH)3 in a total volume of 100 μl. The sensitization was followed by a 20 min aerosol challenge with 1% w/v OVA on 5 consecutive days with an aerosol delivery system (Buxco Europe; Ltd, UK). Control animals were sham treated with sterile PBS. For tolerance induction in a therapeutic model, sensitized mice were sublingually treated with OVA or OVA plus adjuvant every week, twice a week, during 2 months at a concentration of 500 μg (20 μl). Control mice were sensitized with OVA followed by sham tolerization with PBS. Measurements of airway responsiveness were performed by whole body plethysmography (Buxco Europe; Ltd, UK), 48 h after the last challenge for sensitisation or tolerization. Airflow signals were recorded in response to aerosolized methacholine (50 mg/ml), 1 minute, four times. The higher value of Penh (enhanced pause) was taken into account for the calculation of the Penh index (Penh index=Penh measured/Penh PBS).

With Lactobacillus plantarum [L. plantarum] the “Gene expression by T cells: IL10” value [1] was “induce IL10 gene expression”, the “TGF-β production in supernatant of spleen cell cultures” value [2] was “enhanced” and the “airway responsiveness (Penh in response to methacholine)” value [3] was “reduction of airway responsiveness”.
